Test results as given in article PMC9964651, “Discovery of Ureido-Based Apcin Analogues as Cdc20-specific Inhibitors against Cancer” (Pharmaceuticals, 2023).
Counter-ions that a name gives are not always drawn. Like-named read-outs stand apart in the source and are kept apart here.

Tests used:
Hela = assay: In vitro antiproliferative assay (CCK-8); format: cell-based, human; conditions: CCK-8, 48 h, mean ± SD
From the text: The experiment was repeated three times.

four cancer-cell lines = assay: In vitro antiproliferative assay (CCK-8), cell line not given; conditions: Homo sapiens, read-out: IC50 (antiproliferative activity)
Hepg2 = assay: In vitro antiproliferative assay (CCK-8); conditions: read-out: IC50 ± SD Hepg2
Method: (§1) Hela and MDA-MB-132 cells were grown in DMEM (Gibco) containing 10% FBS and 1% double antibody (penicillin 100 U/mL, streptomycin 100 μg/mL, Solarbio). […] All cell lines were purchased from the Xiangya Cell Bank, Central South University, Changsha, China, and incubated at 37 °C with 5% CO2 in a humidified atmosphere. […] Cytotoxicity assay was assessed using CCK-8 methods. The cells were seeded in a 96-well plate (2 × 10^3–3 × 10^3 cells/well), the 96-well plate was incubated at 37 °C with 5% CO2 in a humidified atmosphere, and the cells were grown in a monolayer; the original culture was discarded. A total of 100 μL of drug-containing medium with a specific concentration gradient was added and then cultivated for 48 h; 10 μL/well of CCK-8 solution was added, put in an incubator, and incubated for 1 h and read with a multi-function microplate reader at a wavelength of 450 nm. The inhibition rate was calculated, and the IC50 results were calculated by GraphPad Prism 7 software. The experiment was repeated three times.

Mda-mb-231 = assay: In vitro antiproliferative assay (CCK-8); conditions: read-out: IC50 ± SD Mda-mb-231
Method: as §1

Mcf-7 = assay: In vitro antiproliferative assay (CCK-8); conditions: read-out: IC50 ± SD Mcf-7
Method: as §1

Compound | IC50 (Hela; Homo sapiens, HeLa) | IC50 (four cancer-cell lines) | IC50 (Hepg2; Homo sapiens, HepG2, 48 h) | IC50 (Mda-mb-231; Homo sapiens, MDA-MB-231, 48 h) | IC50 (Mcf-7; Homo sapiens, MCF7, 48 h) | IC50 (Hela) | IC50 (Hepg2; CCK-8, 48 h, mean ± SD) | IC50 (Mda-mb-231; CCK-8, 48 h, mean ± SD) | IC50 (Mcf-7; CCK-8, 48 h, mean ± SD)
O=C(NC(Nc1ncccn1)C(Cl)(Cl)Cl)NS(=O)(=O)c1ccccc1 (stereo not drawn) [Compound 6, N-((2,2,2-trichloro-1-(pyrimidin-2-ylamino)ethyl)carbamoyl)benzenesulfonamide] | > 100 µM | > 80 µM | > 100 µM | > 100 µM | > 100 µM |  |  |  | 
O=C(NCCc1ccccc1)NC(Nc1nc(Cl)cc(Cl)n1)C(Cl)(Cl)Cl (stereo not drawn) [Compound 18, 1-phenethyl-3-(2,2,2-trichloro-1-((4,6-dichloropyrimidin-2-yl)amino)ethyl)urea, sodium salt] | 36.7 ± 1.23 µM |  | 30.59 ± 0.1 µM | 50.4 ± 3.07 µM | 33.8 ± 1.91 µM |  |  |  | 
1-phenethyl-3-(2,2,2-trichloro-1-((4,6-difluoropyrimidin-2-yl)amino)ethyl)urea [Compound 22] |  |  |  |  |  | 31.9 ± 3.29 µM | 26.13 ± 0.05 µM | 27.81 ± 0.17 µM | 24.8 ± 9.49 µM
CCCNC(=O)NC(Nc1ncc([N+](=O)[O-])cn1)C(Cl)(Cl)Cl (stereo not drawn) [Compound 13, 1-propyl-3-(2,2,2-trichloro-1-((5-nitropyrimidin-2-yl)amino)ethyl)urea] | > 100 µM |  | > 100 µM | > 100 µM | > 100 µM |  |  |  | 
Nc1c(Cl)nc(NC(NC(=O)OCCc2ccccc2)C(Cl)(Cl)Cl)nc1Cl (stereo not drawn) [Compound 19, Phenethyl(1-((5-amino-4,6-dichloropyrimidin-2-yl)amino)-2,2,2-trichloroethyl)carbamate] | 34.04 ± 0.02 µM |  | 27.8 ± 1.85 µM | 68.9 ± 2.67 µM | 23.5 ± 4.17 µM |  |  |  | 
O=C(NCCc1ccccc1)NC(Nc1ncc(Cl)cn1)C(Cl)(Cl)Cl (stereo not drawn) [Compound 9, 1-phenethyl-3-(2,2,2-trichloro-1-((5-chloropyrimidin-2-yl)amino)ethyl)urea] | > 100 µM |  | > 100 µM | > 100 µM | > 100 µM |  |  |  | 
Nc1nc(F)nc2c1ncn2C(NC(=O)NCCc1ccccc1)C(Cl)(Cl)Cl (stereo not drawn) [Compound 28, 1-(1-(6-amino-2-fluoro-9H-purin-9-yl)-2,2,2-trichloroethyl)-3-phenethylurea] | 0.17 ± 0.08 µM |  | 0.28 ± 0.13 µM | 0.61 ± 0.12 µM | 0.41 ± 0.05 µM |  |  |  | 
Nc1cc(Cl)nc(NC(NC(=O)NCCc2ccccc2)C(Cl)(Cl)Cl)n1 (stereo not drawn) [Compound 26, 1-(1-((4-amino-6-chloropyrimidin-2-yl)amino)-2,2,2-trichloroe-thyl)-3-phenethylurea] | 44.7 ± 4.6 µM |  | 32.8 ± 3.94 µM | 61.6 ± 11.1 µM | 44.8 ± 8.78 µM |  |  |  | 
Cc1ncc([N+](=O)[O-])n1CCNC(=O)NC(n1cnc2c(N)nc(F)nc21)C(Cl)(Cl)Cl (stereo not drawn) [Compound 29, 1-(1-(6-amino-2-fluoro-9H-purin-9-yl)-2,2,2-trichloroethyl)-3-(2-(2-methyl-5-nitro-1H-imidazol-1-yl)ethyl)urea] | 0.08 ± 0.01 µM |  | 0.13 ± 0.05 µM | 0.37 ± 0.07 µM | 0.23 ± 0.09 µM |  |  |  | 
Cc1c(Cl)nc(NC(NC(=O)NCCc2ccccc2)C(Cl)(Cl)Cl)nc1Cl (stereo not drawn) [Compound 12, 1-phenethyl-3-(2,2,2-trichloro-1-((4,6-dichloro-5-methylpyrimidin-2-yl)amino)ethyl)urea] | 43.5 ± 20.4 µM |  | 27.1 ± 5.27 µM | > 100 µM | 27.7 ± 2.13 µM |  |  |  | 
Cc1c(Cl)nc(NC(NC(=O)NS(=O)(=O)c2ccccc2)C(Cl)(Cl)Cl)nc1Cl (stereo not drawn) [Compound 11, N-((2,2,2-trichloro-1-((4,6-dichloro-5-methylpyrimidin-2yl)amino)ethyl)carbamoyl)benzenesulfonamide] | > 100 µM |  | > 100 µM | > 100 µM | > 100 µM |  |  |  | 
Cc1ccc(S(=O)(=O)NC(=O)NC(Nc2nccc(C(F)(F)F)n2)C(Cl)(Cl)Cl)cc1 (stereo not drawn) [Compound 8, 4-methyl-N-((2,2,2-trichloro-1-((4-(trifluoromethyl)pyrimidin-2-yl)amino)ethyl)carbamoyl)benzenesulfonamide] | > 100 µM |  | > 100 µM | > 100 µM | > 100 µM |  |  |  | 
N#Cc1cnc(NC(NC(=O)NCCc2ccccc2)C(Cl)(Cl)Cl)nc1 (stereo not drawn) [Compound 15, 1-phenethyl-3-(2,2,2-trichloro-1-((5-cyanopyrimidin-2-yl)amin-o)ethyl)urea] | > 100 µM |  | > 100 µM | > 100 µM | > 100 µM |  |  |  | 
O=C(NCCc1ccccc1)NC(Nc1ncc([N+](=O)[O-])cn1)C(Cl)(Cl)Cl (stereo not drawn) [Compound 14, 1-phenethyl-3-(2,2,2-trichloro-1-((5-nitropyrimidin-2-yl)amin-o)ethyl)urea] | 79.6 ± 45.2 µM |  | 51.8 ± 2.43 µM | > 100 µM | 44.7 ± 7.62 µM |  |  |  | 
Cc1cnc(NC(NC(=O)NCCc2ccccc2)C(Cl)(Cl)Cl)nc1 (stereo not drawn) [Compound 23, 1-phenethyl-3-(2,2,2-trichloro-1-((5-methylpyrimidin-2-yl)ami-no)ethyl)urea] | > 100 µM |  | 67.9 ± 6.74 µM | > 100 µM | 60.4 ± 3.91 µM |  |  |  | 
O=C(NCCc1ccccc1)NC(NNc1nccc(C(F)(F)F)n1)C(Cl)(Cl)Cl (stereo not drawn) [Compound 30, 1-phenethyl-3-(2,2,2-trichloro-1-(2-(4-(trifluoromethyl)pyrimi-din-2-yl)hydrazinyl)ethyl)urea] | > 100 µM |  | 58 ± 10.6 µM | 73 ± 42.7 µM | 72.4 ± 30.9 µM |  |  |  | 
O=C(NCCc1ccccc1)NC(Nc1ncc(F)cn1)C(Cl)(Cl)Cl (stereo not drawn) [Compound 16, 1-phenethyl-3-(2,2,2-trichloro-1-((5-fluoropyrimidin-2-yl)amin-no)ethyl)urea] | > 100 µM |  | > 100 µM | > 100 µM | > 100 µM |  |  |  | 
O=C(NC(Nc1ncc(Cl)cn1)C(Cl)(Cl)Cl)NS(=O)(=O)c1ccccc1 (stereo not drawn) [Compound 10, N-((2,2,2-trichloro-1-((5-chloropyrimidin-2yl)amino)ethyl)carbamoyl)benzenesul fonamide] | > 100 µM |  | > 100 µM | > 100 µM | > 100 µM |  |  |  | 
O=C(NCCc1ccccc1)NC(Nc1ncccn1)C(Cl)(Cl)Cl (stereo not drawn) [Compound 2, 1-phenethyl-3-(2,2,2-trichloro-1-(pyrimidin-2-ylamino)ethyl)urea] | 86.7 ± 4.25 µM |  | 66.3 ± 1.91 µM | > 100 µM | 79.3 ± 20.3 µM |  |  |  | 
COC(=O)c1cnc(NC(NC(=O)NCCc2ccccc2)C(Cl)(Cl)Cl)nc1C (stereo not drawn) [Compound 24, Methyl-4-methyl-2-((2,2,2-trichloro-1-(3-phenethylureido)eth-yl)amino)pyrimidine-5-carboxylate] | > 100 µM |  | 32.4 ± 5 µM | 58.6 ± 18.4 µM | 29.2 ± 3.46 µM |  |  |  | 
1-phenethyl-3-(2,2,2-trichloro-1-((2,6-dichloropyrimidin-4-yl)amino)ethyl)urea [Compound 17] |  |  |  |  |  | 60 ± 7.55 µM | > 100 µM | 25.2 ± 10.8 µM | > 100 µM
Nc1nc(Cl)cc(NC(NC(=O)NCCc2ccccc2)C(Cl)(Cl)Cl)n1 (stereo not drawn) [Compound 25, 1-(1-((2-amino-6-chloropyrimidin-4-yl)amino)-2,2,2-trichloroe-thyl)-3-phenethylurea] | 41.6 ± 8.81 µM |  | 32.5 ± 6.31 µM | 52.2 ± 0.63 µM | 37.3 ± 1.63 µM |  |  |  | 
Nc1c(Cl)nc(NC(NC(=O)NCCN2CCOCC2)C(Cl)(Cl)Cl)nc1Cl (stereo not drawn) [Compound 21, 1-(1-((5-amino-4,6-dichloropyrimidin-2-yl)-l4-azanyl)-2,2,2-trichloroethyl)-3-(2-morpholinoethyl)urea] | > 100 µM |  | > 100 µM | > 100 µM | > 100 µM |  |  |  | 
